From US10206890B2, “Pharmaceutical combination” (priority 2008, dated 2019)
Several values for one entry are separate records, joined by “and”; a condition that tells them apart may be missing. Equal values may be shown once. Where a name gives a salt, the structure may show the parent alone. Read-outs that look alike come from different tables or passages of the source.

Key:
[1] = test system: rats with tightly ligated L5, L6 spinal nerves (tactile allodynia); assay: b) In vivo experiments according to Chung (anti-allodynic testing, single dose combinations vs sum of single effects); design: species or system rat; settings: 30 min, ± SEM
Description: The left L5 and L6 spinal nerves were exposed by removing a small piece of the paravertebral muscle and a part of the left spinous process of the L5 lumbar vertebra. The L5 and L6 spinal nerves were then carefully isolated and tightly ligated with silk (NC-silk black, USP 5/0, metric 1, Braun Melsungen AG, Melsungen, FRG). After checking hemostasis, the muscle and the adjacent fascia were closed with sutures and the skin was closed with sutures.
After operation, animals were allowed to recover for one week. Animals develop tactile allodynia which is stable for at least five weeks. For the assessment of tactile allodynia the rats were placed on a metal mesh covered with a plastic dome and were allowed to habituate until the exploratory behaviour diminished. Threshold for tactile allodynia was measured with an electronic von Frey anesthesiometer (Somedic, Sweden). Animals randomly assigned to groups of 10 for each test dose and vehicle, were tested 0.5 h before administration and on several time points after administration. The median of the withdrawal threshold for each animal at a given time is calculated from five individual stimulations with the electronic von Frey filament. Withdrawal thresholds of the injured paws are expressed as % maximal possible effect (% MPE) comparing predrug threshold of Chung-animals (=0% MPE) and control threshold of sham-animals (=100% MPE). A cut-off is set at 100% MPE. The effect of each compound and vehicle is calculated for each testing time point (e.g. 0.5, 1, 3 h post administration) as interindividual % MPE value (±SEM). Anti-allodynic efficacy is defined as increase of ipsi-lateral withdrawal threshold without effect on contra-lateral withdrawal threshold. Ten animals have been used in each group.
Effects of drug combinations are compared to the theoretical sum of the effects of each drug tested alone.

[2] = test system: inflamed rat hind paw (carrageenan); assay: c) In vivo experiments according to Randall-Selitto (carrageenan inflammatory pain, mechanical nociceptive threshold; isobolographic analysis; settings: peak effect 15 min p. appl., interval in brackets; for ED50: Rattus norvegicus, 0.25 h
Protocol: The weight ratios of the components (a) and (b) that will lead to a supra-additive effect (synergistic effect) of the inventive pharmaceutical composition may be determined via the test of Randall and Selitto as described in Arch. Int. Pharmacodyn., 1957, 111, 409 to 419, which is a model for inflammatory pain. The respective part of the literature is hereby incorporated by reference and forms part of the present disclosure.
Acute inflammation is induced by an intraplantar injection of 0.1 ml of a carrageenan solution (0.5% in distilled water) into one hind paw. The mechanical nociceptive threshold is measured 4 hours after carrageenan injection using an Algesiometer (Ugo Basile, Italy). The device generates a mechanical force with a linear increase over time. The force is applied to the dorsal surface of the inflamed rat hind paw via a cone-shaped stylus with a rounded tip (2 mm tip diameter). The nociceptive threshold is defined as the force (in grams) at which the rat vocalises (cut-off force 250 g). The mechanical nociceptive threshold is measured at different timepoints after the drug or vehicle administration. The antinociceptive and antihyperalgesic activity of the tested substance is expressed as percentages of the maximal possible effect (% MPE). The group size is n=10.
The interactions studies presented herein were performed using equieffective doses of the two components, calculated from the ratio of the respective ED50 values of the components if administered alone.
The route of administration was intravenous (i.v.) for Tapentadol hydrochloride (A) and intraperitoneal (i.p.) for the anticonvulsants (antiepileptics) Lamotrigine, Lacosamide, Levetiracetam and Retigabine dihydrochloride. […] According to their respective timepoint of peak effect, A was applied 15 min and the anticonvulsant component 15 min before timepoint of measurement of the interaction-experiments (i. e. both components were applied simultaneously). Thus, the time point of ED50 calculation of the combination corresponds to the timepoint of the peak effect of the respective compound.

[3] = test system: male Sprague-Dawley rats with ligated left L5/L6 spinal nerves (tactile allodynia); assay: In vivo experiments according to Chung (spinal nerve ligation, tactile allodynia, electronic von Frey; isobolographic analysis); design: species or system rat; settings: for contra-lateral paw withdrawal threshold, anti-nociceptive effect: 10 mg/kg i.v.; for ED50 (95% confidence interval), anti-allodynic efficacy, single substance / efficacy, increase in the withdrawal threshold of the ipsi-lateral hind paw: i.v.; for ED50 (95% confidence interval), anti-allodynic efficacy, single substance: calculated from peak effect vs. control values at 30 min after administration; for efficacy, increase in the withdrawal threshold of the ipsi-lateral hind paw: maximal efficacy over the doses tested (combination: highest dose 1 mg/kg+2.5 mg/kg), peak effect 30 min after administration
Description: The weight ratios of components (a) and (b) that will lead to a supra-additive effect/synergistic effect of the inventive compositions may be determined in the test of Kim & Chung as described in Kim S H, Chung J M. An experimental model for peripheral mononeuropathy produced by segmental spinal nerve ligation in the rat. Pain 1992; 50: 355-63. Said reference is hereby incorporated by reference and forms part of the disclosure.
Ligatures were applied to the left L5/L6 spinal nerves of male Sprague-Dawley rats (140-160 g body weight, Janvier, Genest St. Isle, France). […] Three to four weeks after the operation the tactile allodynia threshold baseline (withdrawal threshold) was measured on the ipsilateral and contralateral hind paw by an electronic von Frey anaesthesiometer (Somedic, Schweden). After test and measurement of the baseline, (1R,2R)-3-(3-dimethylamino-1-ethyl-2-methyl-propyl)-phenol hydrochloride (hereinafter referred to as tapentadol hydrochloride or tapentadol-HCl), (S)-pregabalin as well as the inventive combination of tapentadol-HCl and (S)-pregabalin were each dissolved in 0.9% NaCl solution and injected by the intravenous (i.v.) route (application volume 5 ml/kg). Animals were randomly assigned to groups of 10 for each test dose and vehicle (0.9% NaCl solution) and tactile withdrawal thresholds were tested 0.5 h before administration and on several time points (0.5, 1 and 3 hours) after intravenous administration. Ipsi- and contralateral hindpaws were tested. The median of the withdrawal threshold for each animal at a given time is calculated from five individual stimulations with the electronic von Frey filament. Withdrawal thresholds of the injured paws are expressed as % MPE (Maximum possible effect) comparing predrug threshold of Chung-Animals (=0% MPE) and control threshold of sham-animals (100% MPE). A cut-off is set at 100% MPE. The effect of each compound and vehicle is calculated for each testing time point as interindividual % MPE value.
Data (anti-allodynic efficacy (% MPE), ipsi-lateral, paw withdrawal threshold (g), ipsi- and conralateral) were analysed by means of a two-factor analysis of variance (ANOVA) with repeated measures. In case of a significant treatment effect, post hoc analysis with Bonferroni adjustment was performed. Results were considered statistically significant if P<0.05.

[4] = ip, read-out: ED50 of the anticonvulsant applied alone, i.p.
[5] = ip, i.p., read-out: ED50 of the anticonvulsant applied alone

COC[C@@H](NC(C)=O)C(=O)NCc1ccccc1 [Lacosamide]
Effect % MPE (time after administration of Tapentadol hydrochloride) ([1]; single substance 3 mg/kg iv): 24 ± 4% (30 min) % MPE
ED50 [2, 4]: 35.9 mg/kg

CC1(C)O[C@@H]2[C@@H](CO[C@@]3(COS(N)(=O)=O)OC(C)(C)O[C@@H]23)O1 [Topiramate]
Effect % MPE (time after administration of Tapentadol hydrochloride) ([1]; single substance 1 mg/kg iv): 22 ± 3% (30 min) % MPE

CCOC(=O)Nc1ccc(NCc2ccc(F)cc2)cc1N [Retigabine dihydrochloride]
ED50 [2, 4]: 5.09 mg/kg

CC[C@@H](C(N)=O)N1CCCC1=O [Levetiracetam]
Effect % MPE (time after administration of Tapentadol hydrochloride) ([1]; single substance 20 mg/kg iv): 16 ± 4% (30 min) % MPE
ED50 [2, 5]: 986 mg/kg

CC(C)C[C@H](CN)CC(=O)O [(S)-pregabalin]
contra-lateral paw withdrawal threshold, anti-nociceptive effect [3]: significant anti-nociceptive effects
ED50 (95% confidence interval), anti-allodynic efficacy, single substance [3]: 4.20 (3.37-5.43) mg/kg i.v.
efficacy, increase in the withdrawal threshold of the ipsi-lateral hind paw [3]: 67 % MPE

NCC1(CC(=O)O)CCCCC1 [Gabapentin]
Effect % MPE (time after administration of Tapentadol hydrochloride) ([1]; single substance 10 mg/kg iv (20 min before Tapentadol hydrochloride time point)): 3 ± 3% (30 min) % MPE

Nc1nnc(-c2cccc(Cl)c2Cl)c(N)n1 [Lamotrigine]
ED50 [2, 5]: 35.3 mg/kg
ED50 of the anticonvulsant applied alone ([2]; i.p.): 35.25 mg/kg

CC[C@@H](c1cccc(O)c1)[C@@H](C)CN(C)C [Tapentadol hydrochloride, (1R,2R)-3-(3-dimethylamino-1-ethyl-2-methyl-propyl)-phenol hydrochloride]
Effect % MPE (time after administration of Tapentadol hydrochloride) ([1]; single substance 1 mg/kg iv, hydrochloride): 18 ± 4% (30 min) % MPE and 13 ± 5% (30 min) % MPE
ED50 ([2]; iv, read-out: ED50 of A (Tapentadol hydrochloride) applied alone, i.v.): 1.75 mg/kg
ED50 of A (Tapentadol hydrochloride) applied alone ([2]; i.v., listed as A, hydrochloride): 1.747 mg/kg and 1.749 mg/kg
contra-lateral paw withdrawal threshold, anti-nociceptive effect [3]: significant anti-nociceptive effects
ED50 (95% confidence interval), anti-allodynic efficacy, single substance [3]: 1.65 (1.20-2.35) mg/kg i.v.
efficacy, increase in the withdrawal threshold of the ipsi-lateral hind paw [3]: 94 % MPE
